In paper PMC9736275 (International Journal of Molecular Sciences, 2022):

Molecular target: T1, ATA-Gze (Fusarium graminearum, UniProt I1RDQ2)
T1 construct: gene FGRAMPH1_01T04291
T1 sequence (I1RDQ2 1-325): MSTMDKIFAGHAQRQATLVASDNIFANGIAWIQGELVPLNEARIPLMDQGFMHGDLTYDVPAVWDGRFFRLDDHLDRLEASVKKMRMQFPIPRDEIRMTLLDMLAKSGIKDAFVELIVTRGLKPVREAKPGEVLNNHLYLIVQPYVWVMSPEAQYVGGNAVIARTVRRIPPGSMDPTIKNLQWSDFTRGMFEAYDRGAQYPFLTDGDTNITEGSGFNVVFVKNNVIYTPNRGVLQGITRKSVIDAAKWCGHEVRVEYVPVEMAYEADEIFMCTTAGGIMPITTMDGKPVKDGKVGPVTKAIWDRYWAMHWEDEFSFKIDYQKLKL

In the case of `C[C@@H](N)c1ccccc1` [(R)-1-phenylethylamine], the Km is reported as “The kinetic parameters are shown in Table S3 and Figure S1”.
